How the values were obtained:
[1] = Cytotoxicity against human HuH7 cells assessed reduction in cell viability after 3 to 5 days by MTT assay; format: cell-based, Huh-7
PBMC = assay: (§1) Cytotoxicity against human PBMC assessed reduction in cell viability after 5 days by MTT assay; format: cell-based; details: pbmc, 120 h
CCRF-CEM = assay: (§2) Cytotoxicity against human CCRF-CEM assessed reduction in cell viability after 4 days by MTT assay; format: cell-based; details: ccrf-cem, 96 h
[2] = biological target: RNA-directed RNA polymerase (Hepacivirus hominis) (UniProt O39930); details: Hepatitis C virus subtype 1b
RNA-directed RNA polymerase (Hepacivirus hominis), sequence (O39930 1-591): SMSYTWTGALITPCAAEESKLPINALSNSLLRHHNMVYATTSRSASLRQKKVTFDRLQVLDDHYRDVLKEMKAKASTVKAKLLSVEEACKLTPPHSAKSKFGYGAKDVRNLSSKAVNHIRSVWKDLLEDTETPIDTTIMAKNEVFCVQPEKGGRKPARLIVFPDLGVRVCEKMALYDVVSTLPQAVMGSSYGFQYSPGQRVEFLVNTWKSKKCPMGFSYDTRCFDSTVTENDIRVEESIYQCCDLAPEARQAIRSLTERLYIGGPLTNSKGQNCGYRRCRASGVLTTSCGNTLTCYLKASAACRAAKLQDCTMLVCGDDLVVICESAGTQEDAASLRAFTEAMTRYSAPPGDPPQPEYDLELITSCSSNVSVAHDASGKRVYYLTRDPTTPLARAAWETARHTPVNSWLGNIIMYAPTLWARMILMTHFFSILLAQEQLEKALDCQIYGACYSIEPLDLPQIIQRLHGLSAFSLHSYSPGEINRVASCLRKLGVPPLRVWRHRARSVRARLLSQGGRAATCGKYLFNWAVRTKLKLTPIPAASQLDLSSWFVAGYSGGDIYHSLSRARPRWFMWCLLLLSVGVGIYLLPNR
Description: Inhibition of NS5B polymerase in wild type HCV genotype 1b infected in human Huh7 replicon cells after 5 days by RT-PCR assay

[3] = Mitochondrial toxicity in human HepG2 cells assessed as reduction in cell viability after 14 days in presence of glucose supplemented media by ATP depletion assay; format: cell-based
[4] = Mitochondrial toxicity in human HepG2 cells assessed as reduction in cell viability after 3 days in presence of galactose supplemented media by ATP depletion assay; format: cell-based
[5] = Mitochondrial toxicity in human HepG2 cells assessed as reduction in cell viability after 3 days in presence of glucose supplemented media by ATP depletion assay; format: cell-based
HepG2 [6] = assay: Mitochondrial toxicity in human HepG2 cells assessed as lactic acid production at 50 uM followed by medium plus drugs replenishment every 3 to 4 days for 14 days relative to control; format: cell-based; details: hepg2, 336 h
[7] = biological target: RNA-directed RNA polymerase (Hepacivirus hominis) (UniProt O39930); assay: Inhibition of NS5B polymerase in HCV genotype 1b/4a chimeric replicon infected in human HuH7 replicon cells after 5 days by RT-PCR analysis; format: cell-based
[8] = biological target: RNA-directed RNA polymerase (Hepacivirus hominis) (UniProt O39930); assay: Inhibition of NS5B polymerase in HCV genotype 2a infected in human HuH7 replicon cells after 5 days by RT-PCR analysis; format: cell-based; details: Hepatitis C virus subtype 2a
[9] = as §1; format: cell-based; details: PBMC
[10] = as §2; format: cell-based; details: CCRF-CEM cells
[11] = biological target: RNA-directed RNA polymerase (Hepacivirus hominis) (UniProt O39930); assay: Inhibition of NS5B polymerase in HCV genotype 1b/5a chimeric replicon infected in human HuH7 replicon cells after 5 days by RT-PCR analysis; format: cell-based
[12] = Drug metabolism in human HuH7 cells assessed as Tmax for NTP formation at 10 uM after 2 to 48 hrs by LC-MS/MS analysis; format: ADME, cell-based; details: huh-7, 10 µM
[13] = tested on: cytochrome c oxidase subunit 2 DNA level; assay: Mitochondrial toxicity in human HepG2 cells assessed as inhibition of cytochrome c oxidase subunit 2 DNA level at 50 uM followed by medium plus drugs replenishment every 3 to 4 days for 14 days relative to control; format: cell-based
[14] = tested on: nuclear ribosomal-DNA level; assay: Mitochondrial toxicity in human HepG2 cells assessed as inhibition of nuclear ribosomal-DNA level at 50 uM followed by medium plus drugs replenishment every 3 to 4 days for 14 days relative to control; format: cell-based
[15] = Mitochondrial toxicity in human HepG2 cells assessed as reduction in cell viability after 14 days in presence of galactose supplemented media by ATP depletion assay; format: cell-based
Bone marrow cell [16] = assay: Cytotoxicity against human bone marrow cells assessed as inhibition of burst forming unit-erythroid after 14 days by FACS analysis; format: cell-based; details: 336 h
Bone marrow cell [17] = assay: Cytotoxicity against human bone marrow cells assessed as inhibition of colony-forming unit-granulocyte after 14 days by FACS analysis; format: cell-based; details: 336 h
[18] = Cardiotoxicity against human embryonic stem cell-induced ventricular cardiomyocytes administered on day 7 and measured on day 10 after 30 mins incubation by CellTiter Glo assay; format: toxicity, cell-based, Cardiac muscle cell
[19] = Half life in human intestinal microsomes by LC/MS/MS analysis; format: ADME, Intestine, Microsome
[20] = Stability in human plasma assessed as compound remaining at 2 uM after 120 mins by LC/MS/MS analysis; format: ADME, cell-free; details: read-out: Stability
[21] = Stability in simulated intestinal fluid after 24 hrs by LC/MS/MS analysis; format: ADME; details: simulated gi fluid
[22] = tested on: cytochrome c oxidase subunit 2 DNA level; assay: Mitochondrial toxicity in human HepG2 cells assessed as inhibition of cytochrome c oxidase subunit 2 DNA level at 12.5 uM followed by medium plus drugs replenishment every 3 to 4 days for 14 days relative to control; format: cell-based
[23] = tested on: nuclear ribosomal-DNA level; assay: Mitochondrial toxicity in human HepG2 cells assessed as inhibition of nuclear ribosomal-DNA level at 12.5 uM followed by medium plus drugs replenishment every 3 to 4 days for 14 days relative to control; format: cell-based
[24] = tested on: nuclear ribosomal-DNA level; assay: Mitochondrial toxicity in human HepG2 cells assessed as inhibition of nuclear ribosomal-DNA level at 25 uM followed by medium plus drugs replenishment every 3 to 4 days for 14 days relative to control; format: cell-based
HepG2 [25] = assay: Mitochondrial toxicity in human HepG2 cells assessed as lactic acid production at 12.5 uM followed by medium plus drugs replenishment every 3 to 4 days for 14 days relative to control; format: cell-based; details: hepg2, 336 h
HepG2 [26] = assay: Mitochondrial toxicity in human HepG2 cells assessed as lactic acid production at 25 uM followed by medium plus drugs replenishment every 3 to 4 days for 14 days relative to control; format: cell-based; details: hepg2, 336 h
[27] = tested on: nuclear ribosomal-DNA level; assay: in vitro; details: human, HepG2 cells
in vitro [28] = details: human, liver microsomes
Description: Half life in human liver microsomes in presence of NADPH regenerating system by LC/MS/MS analysis

in vitro [29] = details: human, liver microsomes; remark: listed apart in the source
Description: Intrinsic clearance in human liver microsomes in presence of NADPH regenerating system by LC/MS/MS analysis

in vitro [30] = details: human, liver microsomes; remark: listed apart in the source
Description: Stability in human liver microsomes assessed as compound remaining in absence of NADPH regenerating system after 60 mins by LC/MS/MS analysis

in vitro [31] = details: human, liver microsomes; remark: listed apart in the source
Description: Intrinsic clearance in human liver measured from intrinsic clearance in human liver microsomes in presence of NADPH regenerating system by LC/MS/MS analysis

[32] = Drug uptake in Beagle dog liver at 10 mg/kg, po measured up to 4 hrs by LC-MS/MS analysis; details: in vivo, BLD = below limit of detection
[33] = Prodrug activation in Beagle dog liver assessed as assessed as formation of triphosphate form parent nucleoside at 10 mg/kg, po measured at 4 hrs by LC-MS/MS analysis; details: in vivo
[34] = Drug metabolism in human primary hepatocytes assessed as Tmax for NTP formation at 10 uM after 2 to 48 hrs by LC-MS/MS analysis; format: ADME, cell-based, Hepatocyte
[35] = tested on: cytochrome c oxidase subunit 2 DNA level; assay: Mitochondrial toxicity in human HepG2 cells assessed as inhibition of cytochrome c oxidase subunit 2 DNA level followed by medium plus drugs replenishment every 3 to 4 days for 14 days relative to control; format: cell-based
[36] = Cytotoxicity in human HepaRG cells assessed as reduction in cell viability incubated for 14 days by CellTiter-Glo assay; format: cell-based
[37] = Nephrotoxicity in human HK2 cells after 72 hrs by Hoechst 33342/HCS live/dead green dye-based assay; format: toxicity, cell-based, HK-2
[38] = biological target: RNA-directed RNA polymerase (Hepacivirus hominis) (UniProt O39930); details: genotype 1b/3a
Description: Inhibition of NS5B polymerase in HCV genotype 1b/3a chimeric replicon infected in human HuH7 replicon cells after 5 days by RT-PCR analysis

[39] = tested on: cytochrome c oxidase subunit 2 DNA level; assay: Mitochondrial toxicity in human HepG2 cells assessed as inhibition of cytochrome c oxidase subunit 2 DNA level at 10 uM followed by medium plus drugs replenishment every 3 to 4 days for 14 days relative to control; format: cell-based
HepG2 [40] = assay: Mitochondrial toxicity in human HepG2 cells 10 uM followed by medium plus drugs replenishment every 3 to 4 days for 14 days relative to control; format: cell-based; details: hepg2, 336 h
[41] = tested on: nuclear ribosomal-DNA level; assay: in vitro; details: human, HepG2 cells; remark: listed apart in the source

For `C[C@@]1(O)[C@H](O)[C@@H](CO)O[C@H]1n1ccc(N)nc1=O`, the CC50 [1] was over 100 µM, the CC50 (PBMC) was 60 µM and the CC50 (CCRF-CEM) was 22 µM. The EC90 [2] was 9.9 µM.
Work on `CC(C)OC(=O)[C@H](C)N[P@](=O)(OC[C@H]1O[C@@H](n2ccc(=O)[nH]c2=O)[C@@](F)(Br)[C@@H]1O)Oc1ccccc1` (single isomer, unassigned) yielded an IC50 at 14 days [3] of over 100 µM, an IC50 at 3 days [4] of over 100 µM and an IC50 at 3 days [5] of over 100 µM. It also gave an Activity (HepG2 [6]) of 220%, an EC90 [7] of 0.13 µM and an EC90 [8] of 0.077 µM. The CC50 [1] was over 10 µM, the CC50 at 120 h [9] was over 100 µM and the CC50 at 96 h [10] was over 100 µM. For the same compound, the EC90 [11] was 0.083 µM, the Tmax [12] was 12 h and the inhibition at 336 h, 50 µM [13] was 58%. For the same compound, the inhibition at 336 h, 50 µM [14] was 72%, the IC50 at 14 days [15] was over 100 µM and the IC50 (Bone marrow cell [16]) was 72 µM. The IC50 (Bone marrow cell [17]) was 76 µM, the IC50 at 3 days [18] was over 100 µM and the half-life [19] was over 2.42 h. The remaining at 2 h, 2 µM [20] was 90%, the Stability [21] was “Stable” and the inhibition at 336 h, 12.5 µM [22] was 23%. For the same compound, the inhibition at 336 h, 12.5 µM [23] was 11%, the inhibition at 336 h, 25 µM [24] was 39% and the Activity (HepG2 [25]) was 90%. The Activity (HepG2 [26]) was 120%, the EC90 [2] was 0.074 to 0.28 µM and the IC50 at 14 days [27] was 32 µM. The half-life (in vitro [28]) was 0.328 h, the microsomal CLint (in vitro [29]) was 70.2 µL/min/mg and the remaining at 1 h (in vitro [30]) was 3.7%. For the same compound, the CLint scaled (in vitro [31]) was 63.2 mL/min/kg, the Drug uptake [32] was “Bld” and the Drug metabolism [33] was 20130 ng/mL.
With `CC(C)OC(=O)[C@H](C)N[P@](=O)(OC[C@H]1O[C@@H](n2ccc(=O)[nH]c2=O)[C@](C)(F)[C@@H]1O)Oc1ccccc1` [SOFOSBUVIR] the Activity (HepG2 [6]) was 180%, the EC90 [7] was 0.15 µM and the EC90 [8] was 0.13 µM. It also gave a CC50 [1] of over 100 µM, a CC50 at 120 h [9] of over 100 µM and a CC50 at 96 h [10] of over 100 µM. The Tmax [34] was 12 h, the inhibition at 336 h, 50 µM [13] was 44% and the inhibition at 336 h, 50 µM [14] was 58%. For the same compound, the IC50 at 14 days [35] was over 50 µM, the CC50 at 336 h [36] was 44 µM and the CC50 at 72 h [37] was over 300 µM. The CC50 at 0.5 h [18] was over 100 µM, the inhibition at 336 h, 12.5 µM [22] was 6.7% and the inhibition at 336 h, 12.5 µM [23] was 3.1%. For the same compound, the Activity (HepG2 [25]) was 79%, the EC90 [38] was 0.37 µM and the EC90 [2] was 0.15 to 0.9 µM. It also gave an IC50 at 14 days [27] of 45 µM.
In the case of `Nc1ccn([C@H]2CC[C@@H](CO)O2)c(=O)n1` [ZALCITABINE], the IC50 at 14 days [35] is reported as under 10 µM, the inhibition at 336 h, 10 µM [39] is reported as 84% and the Activity (HepG2 [40]) is reported as 200%. It also gave an IC50 at 14 days [27] of under 10 µM and an inhibition at 336 h, 10 µM [41] of 50%.

Reference: ChEMBL document CHEMBL4411318, “Discovery of a Series of 2'-α-Fluoro,2'-β-bromo-ribonucleosides and Their Phosphoramidate Prodrugs as Potent Pan-Genotypic Inhibitors of Hepatitis C Virus” (J Med Chem, 2019)
